Laboratory results taken from patent US11628176B2, “Combinational drug therapies” (Opna Bio SA, priority 2020, dated 2023).
pIC50: −log10 of the molar value. Like-named read-outs stand apart in the source and are kept apart here.

Tests used:
[1] = test system: 22Rv1 cells; assay: Prostate cancer cell growth assay, single compound (CellTiter-Glo); type: cell-based; details: Homo sapiens, 120 h, 22Rv1 cell growth, 5 days incubation
Method: (§1) Growth assays were done in triplicate and performed as follows.
(§2) 1. On Day 1, LNCaP and 22Rv1 cells were seeded in wells of a 96-well plate at a density of 3000 cells/well in 100 μL of culture media (RPMI 1640 medium supplemented with 10% fetal bovine serum and 1% Penicillin/Streptomycin). Cells were incubated overnight at 37° C. in a humidified atmosphere with 5% CO2.
(§3) 2. On Day 2, for single compound treatment studies, each compound was serially diluted 1:3 in DMSO to create a 9-point titration. A 3 μL aliquot of each dilution was added to 747 μL culture media and 100 μL were added to each triplicate well. Wells containing 0.2% DMSO-treated cells served as uninhibited controls.
(§4) In all studies, cells were incubated at 37° C. in a humidified atmosphere with 5% CO2 for 5 days.
(§5) 3. On Day 7, cell cultures were brought to room temperature for 30 minutes and 50 μL of reconstituted CellTiter-Glo Reagent was added to each well. Plates were shaken at room temperature for approximately 15 minutes Luminescent signal was quantified on a microplate reader.
(§6) 1. For single compound treatment study, all responses were expressed as % inhibition (the percentage inhibition compared to the average response of the DMSO-treated control wells). The data were analyzed by using nonlinear regression to generate IC50 values in Prism (GraphPad, La Jolla, Calif.). 95% confident interval (CI95) of the IC50 values were also calculated in Prism.

[2] = test system: LNCaP cells; assay: as above; type: cell-based; details: Homo sapiens, 120 h, 5 days incubation
Method: as §1, §2, §3, §4, §5, §6

[3] = n=3, read-out: IC50 (geometric mean)

Row | SMILES | pIC50 [1, 3] | pIC50 ([1]; read-out: IC50) | pIC50 [2, 3] | pIC50 ([2]; read-out: IC50)
1 | Cc1noc(C)c1-c1cnc2c(-c3ccc(C(=O)O)cc3)cn(C(C)(c3ccccn3)c3ccccn3)c2c1 [Compound I, 4-(1-(1,1-di(pyridin-2-yl)ethyl)-6-(3,5-dimethylisoxazol-4-yl)-1H-pyrrolo[3,2-b]pyridin-3-yl)benzoic acid] | 7.47 | 7.47 | 7.37 | 7.37
2 | CC(=O)O[C@H]1CC[C@@]2(C)C(=CC[C@@H]3[C@@H]2CC[C@]2(C)C(c4cccnc4)=CC[C@@H]32)C1 [Abiraterone acetate, abiraterone acetate, reference compound] | 4.38 | – | 5.46 | –
